Measurements as given in ChEMBL document CHEMBL1141680, “Identification of ring-fused pyrazolo pyridin-2-ones as novel poly(ADP-ribose)polymerase-1 inhibitors” (Bioorg Med Chem Lett, 2008).

What was measured:
[1] = biological target: Poly [ADP-ribose] polymerase 1 (Homo sapiens, UniProt P09874)
Description: Inhibition of PARP1 in human HeLa cells by fluid scintillation counting using [adenylated-32P]NAD as substrate

[2] = test system: PARP1; experiment: Therapeutic index, ratio of LD40 for human HCT116 cells to drug concentration that reduced half the amount of streptozotocin required to inhibit PARP1-mediated 90% human HCT116 cell growth; type: cell-based, HCT-116; settings: read-out: TI
[3] = test system: HCT-116; experiment: Cytotoxicity against human HCT116 cells; type: cell-based

Sequence of Poly [ADP-ribose] polymerase 1 (P09874 whole entry): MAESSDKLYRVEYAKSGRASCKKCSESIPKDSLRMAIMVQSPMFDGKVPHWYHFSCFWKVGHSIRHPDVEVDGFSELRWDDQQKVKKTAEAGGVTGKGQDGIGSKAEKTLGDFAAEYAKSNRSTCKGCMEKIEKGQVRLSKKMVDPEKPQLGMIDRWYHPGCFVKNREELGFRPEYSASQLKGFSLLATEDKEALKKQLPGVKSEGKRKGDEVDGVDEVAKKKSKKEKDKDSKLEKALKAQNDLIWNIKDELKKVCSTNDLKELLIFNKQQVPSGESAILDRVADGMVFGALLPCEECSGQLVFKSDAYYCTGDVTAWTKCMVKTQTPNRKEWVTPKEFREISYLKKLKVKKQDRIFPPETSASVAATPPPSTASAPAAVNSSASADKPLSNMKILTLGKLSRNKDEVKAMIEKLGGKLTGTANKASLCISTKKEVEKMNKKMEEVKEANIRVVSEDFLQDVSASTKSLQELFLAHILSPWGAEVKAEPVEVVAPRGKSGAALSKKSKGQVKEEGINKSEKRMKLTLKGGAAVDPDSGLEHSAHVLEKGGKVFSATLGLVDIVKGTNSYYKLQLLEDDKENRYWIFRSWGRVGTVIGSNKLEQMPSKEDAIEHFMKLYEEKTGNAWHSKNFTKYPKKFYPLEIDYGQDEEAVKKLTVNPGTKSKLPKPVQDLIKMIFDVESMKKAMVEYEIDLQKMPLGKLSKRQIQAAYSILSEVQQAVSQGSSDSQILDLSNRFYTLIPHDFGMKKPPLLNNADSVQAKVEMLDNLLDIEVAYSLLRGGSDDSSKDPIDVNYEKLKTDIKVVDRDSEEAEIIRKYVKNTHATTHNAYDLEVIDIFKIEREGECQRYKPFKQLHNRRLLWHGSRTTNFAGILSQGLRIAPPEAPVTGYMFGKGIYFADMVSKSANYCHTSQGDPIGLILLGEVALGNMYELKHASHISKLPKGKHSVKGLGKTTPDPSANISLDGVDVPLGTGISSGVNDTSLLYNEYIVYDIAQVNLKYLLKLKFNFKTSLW

Compound	IC50 [1] [µM]	selectivity ratio [2]	LD40 [3] [µM]
COc1ccc(-c2nc3c(C(N)=O)cccc3[nH]2)cc1	0.06		
Cc1nn(C)c2[nH]c(=O)c3c(c12)CSC3	0.0927	> 1.8	> 50
Cc1nn(C)c2nc3c(c(O)c12)CSC3	> 10		
Cc1nn(-c2ccccc2)c2[nH]c(=O)c3c(c12)CCC3	> 10		
Cn1nc(-c2ccccc2)c2c3c(c(=O)[nH]c21)CCC3	0.106	1.6	42.5
Cn1nc(-c2ccccc2)c2c3c(c(=O)[nH]c21)CSC3	0.11	1.4	21.2
Cc1nn(-c2ccccc2)c2[nH]c(=O)c3c(c12)CCCC3	9.72		
O=c1[nH]c2c(c(-c3ccccc3)nn2-c2ccccc2)c2c1CCCC2	> 10		
O=c1[nH]c2c(c(-c3ccccc3)nn2-c2ccccc2)c2c1CCC2	> 10		
Cc1nn(C(C)(C)C)c2[nH]c(=O)c3c(c12)CSC3	1.84		
Cn1nc(-c2cccs2)c2c3c(c(=O)[nH]c21)CCC3	0.149	3.6	11.2
Cc1nn(C)c2[nH]c(=O)c3c(c12)CCC3	0.0298	1.4	27.2
Cn1nc(-c2ccccc2)c2c1NC(=O)C1CCCCC21 (configuration not stated)	0.0073	19.7	7.5

Continued, in another order:

IC50 [1] [µM]	Compound	selectivity ratio [2]	LD40 [3] [µM]
0.16	Cc1cccc2c1CCNC2=O		
0.0022	Cc1nn(C)c2[nH]c(=O)c3c(c12)CCCC3	> 6.6	> 12.5
> 10	Cc1nn(C)c2[nH]c3c(c(=O)c12)CCCC3		
0.0069	Cn1nc(-c2cccs2)c2c3c(c(=O)[nH]c21)CCCC3	> 32.9	> 12.5
0.428	Cn1nc(-c2cccs2)c2c3c(c(=O)[nH]c21)CSC3		
0.519	Cc1nn(C(C)(C)C)c2[nH]c(=O)c3c(c12)CCC3		
> 10	Cc1nn(-c2ccccc2)c2[nH]c(=O)c3c(c12)CSC3		
7	Cc1nn(C)c2[nH]c3c(c(=O)c12)CCC3		
